Where “and” joins values, the source holds several entries; their conditions need not be identical. Identical values can stand only once.
Legend:
[1] = test system: CC(=O)NCC(=O)N1CCC[C@H]1C(=O)N[C@@H](CO)C(=O)N[C@@H](CCC(N)=O)C(=O)N1CCC[C@H]1C(=O)N[C@H](C(=O)N[C@@H](Cc1ccc(O)cc1)C(=O)N1CCC[C@H]1C(=O)NCC(=O)N[C@@H](CC(=O)O)C(=O)N[C@@H](CC(=O)O)C(=O)N[C@@H](C)C(=O)N1CCC[C@H]1C(=O)N[C@H](C(=O)N[C@@H](CCC(=O)O)C(=O)N[C@@H](CC(=O)O)C(=O)N[C@@H](CC(C)C)C(=O)N[C@@H](CCCCN)C(=O)N[C@@H](CCCN=C(N)N)C(=O)N[C@@H](Cc1ccccc1)C(=O)N[C@@H](Cc1ccc(O)cc1)C(=O)N[C@@H](CCCCN)C(=O)N[C@@H](CC(N)=O)C(=O)N[C@@H](CC(C)C)C(=O)N[C@@H](CCCCN)C(=O)N[C@@H](CCC(N)=O)C(=O)N[C@@H](Cc1ccc(O)cc1)C(=O)N[C@@H](CC(C)C)C(=O)N[C@@H](CCCCN)C(=O)N[C@H](C(=O)N[C@H](C(N)=O)C(C)C)C(C)C)C(C)C)[C@@H](C)O; assay: (§1) Decarboxylation of oxaloacetate to produce pyruvate was measured bythe conversion of NADH to NAD+ in the lactate dehydrogenase mediated transformation of pyruvate to lactate at a uM
[2] = test system: CC(C)C[C@H](NC(=O)[C@H](C)NC(=O)[C@H](CCCCN)NC(=O)[C@H](CC(C)C)NC(=O)[C@H](CC(C)C)NC(=O)[C@@H](CCCCN)NC(=O)[C@H](C)NC(=O)[C@@H](N)CC(C)C)C(=O)N[C@@H](C)C(=O)N[C@@H](CCCCN)C(=O)N[C@@H](CC(C)C)C(=O)N[C@@H](CC(C)C)C(=O)N[C@@H](CCCCN)C(=O)N[C@@H](CCCCN)C(N)=O; assay: as §1
[3] = target: L-lactate dehydrogenase B chain (Sus scrofa) (UniProt P00336); assay: as §1
Chain of L-lactate dehydrogenase B chain (Sus scrofa) (P00336 whole entry): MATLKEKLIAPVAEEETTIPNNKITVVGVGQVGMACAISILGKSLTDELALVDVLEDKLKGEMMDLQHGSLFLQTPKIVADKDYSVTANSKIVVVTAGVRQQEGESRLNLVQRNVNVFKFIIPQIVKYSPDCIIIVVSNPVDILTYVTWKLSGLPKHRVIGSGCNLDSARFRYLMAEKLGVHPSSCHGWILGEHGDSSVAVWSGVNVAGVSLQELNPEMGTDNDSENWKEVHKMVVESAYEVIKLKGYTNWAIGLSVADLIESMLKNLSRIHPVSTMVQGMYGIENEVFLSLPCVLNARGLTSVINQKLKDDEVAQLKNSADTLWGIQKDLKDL

[4] = Catalytic efficiency is the ratio of (kcat/KM)
[5] = Decarboxylation of oxaloacetate to produce pyruvate was measured bythe conversion of NADH to NAD+ in the lactate dehydrogenase mediated transformation of pyruvate to lactate; expressed as Catalytic efficiency as the ratio of (kcat/KM)
[6] = target: L-lactate dehydrogenase B chain (Sus scrofa) (UniProt P00336); assay: Decarboxylation of oxaloacetate to produce pyruvate was measured by the conversion of NADH to NAD+ in the lactate dehydrogenase mediated transformation of pyruvate to lactate at a uM

Chain of L-lactate dehydrogenase B chain (Sus scrofa), P00336 (P00336 whole entry): as above

Compound	k cat [3] [s⁻¹]	k cat/Km [4]	k cat/Km [5] [M⁻¹ s⁻¹]	also measured
L-lactate dehydrogenase B chain (Sus scrofa), P00336				Km [1]: 49.4 mM; Km [2]: 48 mM
Ac-GPSQPTYPGDDAPVEDLKRFYKNLKQYLKVV-NH2	0.086	1.74 M⁻¹ s⁻¹		
CCCCN			0.0005	
NCC(N)=O			0.011	
CC(C)C[C@H](NC(=O)[C@H](C)NC(=O)[C@H](CCCCN)NC(=O)[C@H](CC(C)C)NC(=O)[C@H](CC(C)C)NC(=O)[C@@H](CCCCN)NC(=O)[C@H](C)NC(=O)[C@@H](N)CC(C)C)C(=O)N[C@@H](C)C(=O)N[C@@H](CCCCN)C(=O)N[C@@H](CC(C)C)C(=O)N[C@@H](CC(C)C)C(=O)N[C@@H](CCCCN)C(=O)N[C@@H](CCCCN)C(N)=O	0.0075	0.153 M⁻¹ s⁻¹ and 0.071 M⁻¹ s⁻¹		k cat [6]: 0.015 s⁻¹
